Experimental data published in paper PMC6061696 (2018).

Assays:
[1] = system: neomycin sensing riboswitch (NSR), wild-type (U14) (RNA, riboswitch) GGCUGCUUGUCCUUUAAUGGUCCAGUC; experiment: 1H NMR imino spectra; conditions: no added monovalent ions; complex also in K+ buffers; 50 mM BisTris pH 6.3, 10 °C; ligand in slight excess; U10, U21 signals remain at 40 °C
[2] = system: NSR U14C mutant (C14+) (RNA, riboswitch, C14 protonated at N3 in the folded complex (transcribed as ordinary C)) GGCUGCUUGUCCUCUAAUGGUCCAGUC; experiment: 1H NMR imino spectra; conditions: no added monovalent ions; complex also in K+ buffers; 50 mM BisTris pH 6.3, 10 °C; ligand in slight excess

binding [1]: yes
binding [2]: yes
SMILES: NC[C@H]1O[C@H](O[C@H]2[C@H](O[C@@H]3O[C@H](CO)[C@@H](O)[C@H]3O)[C@@H](O)[C@H](N)C[C@@H]2N)[C@H](N)[C@@H](O)[C@@H]1O
